How the values were obtained:
[1] = tested on: Human whole blood stimulated with a TLR2 agonist (lipoteichoic acid), IL-6 levels; test: IRAK4 Whole Blood Assay; assay type: cell-based; settings: lipoteichoic acid 10 μg/mL
Procedure, shortened: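 ACD-A-anticoagulated human whole blood was preincubated with compounds for 60 min at 37 °C under 5% CO2. It was then stimulated with 10 μg/mL lipoteichoic acid (final) in RPMI for 5 h. IL-6 in plasma supernatants was measured by flow cytometry bead assay.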

IRAK4 = IRAK4 (Homo sapiens (Human), UniProt Q9NWZ3); test: IRAK4 Inhibition Assay; assay type: biochemical; settings: ATP 500 μM; IRAK4 0.6 nM
IRAK4, sequence (Q9NWZ3 whole entry, species assumed): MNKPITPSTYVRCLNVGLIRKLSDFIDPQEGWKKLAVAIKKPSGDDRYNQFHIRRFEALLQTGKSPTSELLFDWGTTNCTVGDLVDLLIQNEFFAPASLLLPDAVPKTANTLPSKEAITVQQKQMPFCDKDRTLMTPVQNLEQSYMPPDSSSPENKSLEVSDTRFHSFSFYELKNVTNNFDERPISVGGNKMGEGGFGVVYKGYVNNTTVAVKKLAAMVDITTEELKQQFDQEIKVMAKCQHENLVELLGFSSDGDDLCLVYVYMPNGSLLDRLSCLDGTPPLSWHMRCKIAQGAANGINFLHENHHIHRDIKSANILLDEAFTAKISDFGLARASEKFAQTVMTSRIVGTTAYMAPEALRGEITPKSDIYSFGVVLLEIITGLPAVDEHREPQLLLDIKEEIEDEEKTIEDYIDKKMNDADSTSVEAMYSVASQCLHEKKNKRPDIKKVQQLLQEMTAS
Procedure, shortened: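 Enzyme 0.6 nM, ATP 500 μM, FL-peptide 1.5 μM, DMSO 1.6%; HEPES pH 7.2/MgCl2/Brij 35/DTT buffer. RT, 60 min, EDTA stop. Mobility-shift product/substrate ratio; % inhib vs no-enzyme and vehicle controls.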

Structure (SMILES)	EC50 ([1]; Homo sapiens) [nM]	IC50 (IRAK4) [nM]	EC50 [1] [nM]
CC(C)Nc1cc(-n2ncc3cc(C#N)cnc32)ncc1-c1cn([C@@H]2CCC[C@H]2O)nn1 (single isomer, unassigned) [Example 82]		5	1660
CC(C)Nc1cc(-n2cnc3cc(C#N)cnc32)ncc1-c1cn([C@@H]2CCC[C@H]2O)nn1 (single isomer, unassigned) [Example 83]		5	860
CC(C)Nc1cc(-n2ncc3cc(C#N)cnc32)ncc1-n1cc(CC(F)C(C)(C)O)nn1 (racemic) [345, racemic, (±)-1-(5-(4-(2-fluoro-3-hydroxy-3-methylbutyl)-1H-1,2,3-triazol-1-yl)-4-(isopropylamino)pyridin-2-yl)-1H-pyrazolo[3,4-b]pyridine-5-carbonitrile]	270	4	
CC(C)Nc1cc(-n2ncc3cc(C#N)cnc32)ncc1-c1cn([C@@H]2CCN(S(C)(=O)=O)C[C@H]2O)nn1 (single isomer, unassigned) [Example 204]		6	710
CC(C)(O)CCc1cn(-c2cnc(-n3ncc4cc(C#N)cnc43)cc2NC2CCOC2)nn1 [Example 366, (S)-1-(5-(4-(3-hydroxy-3-methylbutyl)-1H-1,2,3-triazol-1-yl)-4-((tetrahydrofuran-3-yl)amino)pyridin-2-yl)-1H-pyrazolo[3,4-b]pyridine-5-carbonitrile]		9	410
CC(C)Nc1cc(-n2ncc3cc(C#N)cnc32)ncc1-c1cn(C[C@H]2CCCN2C(=O)OC(C)(C)C)nn1 [Example 99, (R)-tert-butyl 2-((4-(6-(5-cyano-1H-pyrazolo[3,4-b]pyridin-1-yl)-4-(isopropylamino)pyridin-3-yl)-1H-1,2,3-triazol-1-yl)methyl)pyrrolidine-1-carboxylate]	3370	8	
CC(O)Cc1cn(-c2cnc(-n3ncc4cc(C#N)cnc43)cc2NC(C)C)nn1 (single isomer, unassigned) [Example 265, 1-(5-(4-(2-hydroxypropyl)-1H-1,2,3-triazol-1-yl)-4-(isopropylamino)pyridin-2-yl)-1H-pyrazolo[3,4-b]pyridine-5-carbonitrile]	410	5	
CC(C)Nc1cc(-n2ncc3cc(C#N)cnc32)ncc1-c1cn(C2CN(C)C2)nn1 [Example 151, 1-(4-(isopropylamino)-5-(1-(1-methylazetidin-3-yl)-1H-1,2,3-triazol-4-yl)pyridin-2-yl)-1H-pyrazolo[3,4-b]pyridine-5-carbonitrile, 2TFA]	1610	2	
CCn1cc(-c2cnc(-n3ncc4cc(Cl)cnc43)cc2NC(C)C)nn1 [Example 39, 2-(5-chloro-1H-pyrazolo[3,4-b]pyridin-1-yl)-5-(1-ethyl-1H-1,2,3-triazol-4-yl)-N-isopropylpyridin-4-amine]	4300	14	
CC(C)CCc1cn(-c2cnc(-n3ncc4cc(C#N)cnc43)cc2NC(C)C)nn1 [Example 307, 1-(5-(4-isopentyl-1H-1,2,3-triazol-1-yl)-4-(isopropylamino)pyridin-2-yl)-1H-pyrazolo[3,4-b]pyridine-5-carbonitrile]	580	3	
CC(C)Nc1cc(-n2ncc3cc(C#N)cnc32)ncc1-c1cn(C2CN(C#N)C2)nn1 [Example 141, 1-(5-(1-(1-cyanoazetidin-3-yl)-1H-1,2,3-triazol-4-yl)-4-(isopropylamino)pyridin-2-yl)-1H-pyrazolo[3,4-b]pyridine-5-carbonitrile]	960	8	
CC(C)Nc1cc(-n2ncc3cc(C#N)cnc32)ncc1-c1cn(CCCCCN)nn1 [Example 114, 1-(5-(1-(5-aminopentyl)-1H-1,2,3-triazol-4-yl)-4-(isopropylamino)pyridin-2-yl)-1H-pyrazolo[3,4-b]pyridine-5-carbonitrile]	870	3	
CC(C)Nc1cc(-n2ncc3cc(C#N)cnc32)ncc1-c1cc(C2CCCOC2)no1 (centres unmarked) [Example 416, 1-(4-(isopropylamino)-5-(3-(tetrahydro-2H-pyran-3-yl)isoxazol-5-yl)pyridin-2-yl)-1H-pyrazolo[3,4-b]pyridine-5-carbonitrile]	480	2	
CC(C)Nc1cc(-n2ncc3cc(C#N)cnc32)ncc1-c1cn(CC(O)C(C)C)nn1 (centres unmarked) [Example 135, 1-(5-(1-(2-hydroxy-3-methylbutyl)-1H-1,2,3-triazol-4-yl)-4-(isopropylamino)pyridin-2-yl)-1H-pyrazolo[3,4-b]pyridine-5-carbonitrile]	1190	4	
CC(C)Nc1cc(-n2ncc3cc(C#N)cnc32)ncc1-c1cn([C@@H](CO)c2ccccc2)nn1 [Example 86, (R)-1-(5-(1-(2-hydroxy-1-phenylethyl)-1H-1,2,3-triazol-4-yl)-4-(isopropylamino)pyridin-2-yl)-1H-pyrazolo[3,4-b]pyridine-5-carbonitrile]	1770	18	
CC(C)Nc1cc(-n2ncc3cc(C#N)cnc32)ncc1-c1cn(CCCc2ccccc2)nn1 [Example 130, 1-(4-(isopropylamino)-5-(1-(3-phenylpropyl)-1H-1,2,3-triazol-4-yl)pyridin-2-yl)-1H-pyrazolo[3,4-b]pyridine-5-carbonitrile]	10700	5	
CC(C)Nc1cc(-n2ncc3cc(C#N)cnc32)ncc1-n1cc(C2CCCC2)nn1 [Example 266, 1-(5-(4-cyclopentyl-1H-1,2,3-triazol-1-yl)-4-(isopropylamino)pyridin-2-yl)-1H-pyrazolo[3,4-b]pyridine-5-carbonitrile]	520	14	
COCCn1cc(-c2cnc(-n3ncc4cc(C#N)cnc43)cc2NC(C)C)nn1 [Example 121, 1-(4-(isopropylamino)-5-(1-(2-methoxyethyl)-1H-1,2,3-triazol-4-yl)pyridin-2-yl)-1H-pyrazolo[3,4-b]pyridine-5-carbonitrile]	1740	6	

The remaining lines, values ahead:

EC50 ([1]; Homo sapiens) [nM]	IC50 (IRAK4) [nM]	EC50 [1] [nM]	Structure (SMILES)
1280	7		CCCc1cn(-c2cnc(-n3ncc4cc(C#N)cnc43)cc2NC2CCOCC2)nn1 [Example 283, 1-(5-(4-propyl-1H-1,2,3-triazol-1-yl)-4-((tetrahydro-2H-pyran-4-yl)amino)pyridin-2-yl)-1H-pyrazolo[3,4-b]pyridine-5-carbonitrile]
210	2		CC(C)Nc1cc(-n2ncc3cc(C#N)cnc32)ncc1C1=NOC(CCC(C)(C)O)C1 (centres unmarked) [Example 437, 1-(5-(5-(3-hydroxy-3-methylbutyl)-4,5-dihydroisoxazol-3-yl)-4-(isopropylamino)pyridin-2-yl)-1H-pyrazolo[3,4-b]pyridine-5-carbonitrile]
10000	1		CCOC(=O)Cn1cc(-c2cnc(-n3ccc4cncnc43)cc2NC(C)C)nn1 [Example 2, ethyl 2-(4-(4-(isopropylamino)-6-(7H-pyrrolo[2,3-d]pyrimidin-7-yl)pyridin-3-yl)-1H-1,2,3-triazol-1-yl)acetate]
2140	17		CC(C)Nc1cc(-n2ncc3cc(C#N)cnc32)ncc1-c1cn(C[C@H](N)Cc2ccccc2)nn1 [Example 169, (R)-1-(5-(1-(2-amino-3-phenylpropyl)-1H-1,2,3-triazol-4-yl)-4-(isopropylamino)pyridin-2-yl)-1H-pyrazolo[3,4-b]pyridine-5-carbonitrile]
520	3		CC(C)Nc1cc(-n2ncc3cc(C#N)cnc32)ncc1-n1cc(C2CCC(NC(C)C)CC2)nn1 (centres unmarked) [Example 343, 1-(4-(isopropylamino)-5-(4-((1 s,4s)-4-(isopropylamino)cyclohexyl)-1H-1,2,3-triazol-1-yl)pyridin-2-yl)-1H-pyrazolo[3,4-b]pyridine-5-carbonitrile]
20000	7		CC(C)Nc1cc(-n2ncc3cc(C#N)cnc32)ncc1-c1cn(-c2ccccc2F)nn1 [Example 20, 1-(5-(1-(2-fluorophenyl)-1H-1,2,3-triazol-4-yl)-4-(isopropylamino)pyridin-2-yl)-1H-pyrazolo [3,4-b]pyridine-5-carbonitrile]
	7	1030	CC(F)Cn1cc(-c2cnc(-n3ncc4cc(C#N)cnc43)cc2NC(C)C)nn1 (single isomer, unassigned; enantiomer 2) [Example 167, 1-(5-(1-(2-fluoropropyl)-1H-1,2,3-triazol-4-yl)-4-(isopropylamino)pyridin-2-yl)-1H-pyrazolo[3,4-b]pyridine-5-carbonitrile, enantiomer 2]
3960	5		CC(C)Nc1cc(-n2ncc3cc(C#N)c(N)nc32)ncc1-c1cn(C[C@H](C)O)nn1 [Example 70, (S)-6-amino-1-(5-(1-(2-hydroxypropyl)-1H-1,2,3-triazol-4-yl)-4-(isopropylamino)pyridin-2-yl)-1H-pyrazolo[3,4-b]pyridine-5-carbonitrile]
630	6		CC(=O)N1CCC(c2cn(-c3cnc(-n4ncc5cc(C#N)cnc54)cc3NC(C)C)nn2)CC1 [Example 335, 1-(5-(4-(1-acetylpiperidin-4-yl)-1H-1,2,3-triazol-1-yl)-4-(isopropylamino)pyridin-2-yl)-1H-pyrazolo[3,4-b]pyridine-5-carbonitrile]
370	2		CC(C)(O)CCc1cn(-c2cnc(-n3ncc4cc(C#N)cnc43)cc2NC2(C)CC2)nn1 [Example 383, 1-(5-(4-(3-hydroxy-3-methylbutyl)-1H-1,2,3-triazol-1-yl)-4-((1-methylcyclopropyl)amino)pyridin-2-yl)-1H-pyrazolo[3,4-b]pyridine-5-carbonitrile]

Reference: patent US10294229B2, “Heteroaryl substituted aminopyridine compounds” (BRISTOL-MYERS SQUIBB COMPANY, priority 2015, dated 2019)
